Data from patent US7521236B2, “Sulfur-oxidizing plant growth promoting rhizobacteria for enhanced canola performance” (priority 2002, dated 2009).

Experiments:
Type in all cases: in vivo
canola plants [1] = experiment: Growth room experiment in sulfur deficient Melfort, SK soil: biomass and yield; conditions: 105 DAP
Protocol: (§1) Effects of bacterial inoculation on plant growth parameters were studied in a growth room with the four screened S-oxidizing strains (RAY12, RAY28, RAY132 and RAY209). More emphasis was given on plant growth characteristics including canola seed yield. Growth room assay was conducted with a sulfur deficient field soil, collected near Melfort, Saskatchewan, and was a loam (pH 7.8, electrical conductivity (mS/cm) 0.2 with following nutrient levels in ppm. nitrate nitrogen 7.3, phosphorous 14.6, potassium 187.1 and sulfur 9.5. Rhizobacterial strains RAY12, RAY28, RAY132 and RAY209 were used for the canola seed inoculation. The experiment was consisting of eight bacterial treatments along with three controls (control—no sulfur; elemental S control; and sulfate S control) each having three replications. One and half kg sieved soil (<5 mm mesh) was added to 16-cm plastic pots and the pots were kept in a growth room (22° C., 16 h light; 18° C., 8 h dark). Five seeds were planted in each of the pots and seedlings were thinned to one per pot after emergence. Daily watering to constant weight ensured similar matric potential between the pots. Canola plants were harvested at maturity (105 DAP) and stalk dry weight, pod number, pod weight and seed weight or yield determined. In another growth room experiment done in similar manner as previous one, canola seed yield, and, seed macronutrients (S, N, P, K, Ca and Mg) and micronutrients (Zn, B, Cu and Fe) uptake were determined.

canola plants [2] = experiment: Second growth room experiment: seed yield and seed nutrient uptake; conditions: per plant; for B uptake / Ca uptake / Cu uptake / K uptake / Mg uptake / N uptake / P uptake / S uptake / Zn uptake: seed
Protocol: as §1

canola = experiment: Field trial 2002, Dauphin, MB; conditions: canola seed, Dauphin field site
Protocol: In 2002, field trials were carried out using three canola PGPR strains. The canola trials were planted through commercial seed planter using bacteria inoculated powdered peat-based carrier material coated seeds. The cultivar used was the same as 2001. All field trials were randomized complete block design having each plot size of 6 m×1.5 m, with nine bacterial treatments along with three controls, all with six replicates. […] Plots were harvested at maturity, seed was collected and cleaned, and yield was measured based on 8.5% seed moisture. In addition, canola seed macronutrients (S, N, P, K, Ca and Mg) and micronutrients (Zn, Mn, Cu and Fe) uptake were also determined.

canola plants [3] = experiment: Second growth room experiment: seed yield and seed nutrient uptake; conditions: seed, per plant

Compound | pod no. (canola plants [1]) [NO./PLANT] | pod wt. (canola plants [1]) [G/PLANT] | seed wt. (canola plants [1]) [G/PLANT] | stalk dry wt. (canola plants [1]) [G/PLANT] | seed yield (canola plants [2]) [g] | B uptake (canola plants [2]) [µg] | Ca uptake (canola plants [2]) [mg] | Cu uptake (canola plants [2]) [µg] | K uptake (canola plants [2]) [mg] | Mg uptake (canola plants [2]) [mg] | N uptake (canola plants [2]) [mg] | P uptake (canola plants [2]) [mg] | S uptake (canola plants [2]) [mg] | Zn uptake (canola plants [2]) [µg] | Ca uptake (canola) [kg/ha] | Cu uptake (canola) [g/ha] | Fe uptake (canola) [g/ha] | K uptake (canola) [kg/ha] | Mg uptake (canola) [kg/ha] | Mn uptake (canola) [g/ha] | other results
sulfate sulfur [SO4] | 78 | 4.20 | 1.71 | 4.56 | 3.11 | 0.13 | 11.71 | 0.03 | 27.52 | 12.12 | 116.30 | 28.24 | 15.76 | 1.72 | 5.02 | 2.61 | 68.20 | 9.09 | 4.14 | 37.22 | N uptake (canola): 39.74 kg/ha; P uptake (canola): 8.71 kg/ha; S uptake (canola): 5.10 kg/ha; Zn uptake (canola): 51.32 g/ha; Mn uptake (canola plants [3]): 1.22 µg
[S] [ES, elemental sulfur] | 58 | 3.17 | 1.13 | 3.84 | 2.92 | 0.09 | 12.10 | 0.03 | 28.42 | 11.37 | 116.30 | 28.71 | 18.66 | 2.08 | 4.50 | 2.17 | 57.17 | 7.60 | 3.51 | 28.97 | N uptake (canola): 32.91 kg/ha; P uptake (canola): 7.54 kg/ha; S uptake (canola): 4.13 kg/ha; Zn uptake (canola): 40.05 g/ha; Mn uptake (canola plants [3]): 1.14 µg
